Assay results: patent publication US20240122865A1, “Methods of Protecting RNA” (Pfizer Inc., priority 2021, published 2024)

Tests used:
Format in all cases: biochemical, Trichoderma atroviride
Chi18 model RNA [1] = experiment: TapeStation Assay, Chi18 model RNA; parameters: Conc. chi18#1 / Conc. chi18#2: unit not given here; settings: for % Control N = 1 / % Control N = 2 / % Control Avg.: Chi18 RNA, 20 mM amino acids, 50 mM CAPS pH 11, 50° C. 15 min; for % Control N = 1 / % Control N = 2: vs Time 0; for % Control Avg.: vs Time 0, Avg N=2; for Conc. chi18#1: 20 mM amino acids in 50 mM CAPS pH 11, run #1
Protocol: (§1) These assays were performed with amino acids and compared to a no-degradation baseline control to gauge degree of protection imparted by the amino acid. Multiple functional assay approaches were used where differing endpoints were measured including a droplet digital PCR (ddPCR) assay where intact RNA sequence was quantitated, a size exclusion base hydrolysis degradation assay that used a size exclusion column to determine the degree of degradation occurring to an mRNA construct, and finally, a TapeStation assay that utilizes capillary electrophoresis and optical detection to measure intact RNA. […] Affinity selection by mass spectrometry (ASMS), native electrospray ionization mass spectrometry (nESI-MS) and nuclear magnetic resonance (NMR) may be used as several complementary approaches to ascertain compound binding to RNA. The latter techniques utilize MS to measure mass of bound compound alone (ASMS), or mass of RNA and bound compound (nESI-MS). The nESI-MS and NMR studies may be conducted to provide direct analytical quantification of resulting complex via measurement of mass (nESI-MS) or chemical shifts (NMR). The ASMS experiment is conducted to determine saturation binding of the compound to RNA where resulting apparent binding constants (KD,App) may be generated. Further descriptions of the functional and binding assays are provided in the section below.
(§2) In principle, samples are loaded to the instrument where electrophoresis separates component RNA's on the basis of mass, and subsequently analyzes these optically as they travel through the capillary.
(§3) RNA samples were diluted to the appropriate concentration to fall within the linear range of detection for the RNA ScreenTape Assay. Model Chi18 or FgenL RNAs were diluted to 50 ng/μL in 50 mM CAPS buffer pH 11. Amino acid stocks were made up in 50 mM CAPS pH 11 and re-adjusted to >pH 11 after solubilization. […] The samples were aliquoted to PCR tubes for each time point (Time 0 or 15 minutes). Degradation reaction: Samples were incubated at 50° C. for 0 to 15 minutes in a thermocycler, removed at the appropriate time point and placed on ice. Time 0 samples remained on ice.

FgenL model RNA [2] = experiment: TapeStation Assay, FgenL model RNA; parameters: Conc. FgenL#1 / Conc. FgenL#2: unit not given here; settings: for % Control N = 1 / % Control N = 2 / % Control Average: FgenL RNA, 20 mM amino acids, 50 mM CAPS pH 11, 50° C. 15 min; for % Control N = 1 / % Control N = 2: vs Time 0; for % Control Average: vs Time 0, Avg N=2; for Conc. FgenL#1 / Conc. FgenL#2: intact FgenL RNA after 15 min at 50° C.; for Conc. FgenL#1: 20 mM amino acids in 50 mM CAPS pH 11, run #1; for Conc. FgenL#2: 20 mM amino acids in 50 mM CAPS pH 11, run #2
Protocol: as §1, §2, §3

Chi18 model RNA [3] = experiment: Droplet Digital Polymerase Chain Reaction (ddPCR) Assay, Chi18; settings: percent protection, pH 11.0, 30° C., 16 hours, n = 2
Protocol: (§4) The ddPCR assays measure RNA integrity by converting intact RNA to cDNA by reverse transcription, then performing digital PCR in thousands of nanoliter-sized droplets for each sample. PCR is performed within each droplet, which allows for more sensitive detection of subtle changes in RNA concentration compared to traditional PCR or qPCR. Additionally, primers/probes specific to the 5′ end of the RNA/cDNA transcript(s) are used to assess fragment integrity—e.g. degraded RNA will have fewer 5′ positive droplets. The BioRad QX200 Droplet Digital PCR System was used for the ddPCR workflow.
(§5) Basic assay procedure: RNA samples (Chi18 or FgenL fragments) were diluted to 25 fg/μL or 10 fg/μL, respectively, in 50 mM […] buffer pH 11.0. Amino acid stocks were made up in 50 mM CAPS buffer, pH 11.0 and subsequently re-adjusted to pH 11.0, post solubilization. Amino acid stocks were tested in a dose-response format to determine EC50. An amino acid dilution plate containing a ˜300 mM (or appropriate) top-concentration of amino acid in 50 mM CAPS buffer was serially (half-log) diluted for 10 times. 0.6 μL of this compound dilution plate was spotted into a 96-well PCR plate (Thermo). Sample RNAs were added (6 μL) and incubated with test amino acid as described below.
(§6) Degradation reaction: Treated RNAs were incubated for 16 hours at 30° C. for Chi18 samples or 44° C. for FgenL samples. Upon completion of the degradation reaction, cDNA was made from the intact RNA by Reverse Transcription and ddPCR run for each sample (96 well plates). Positive 5′ droplet values were divided by the total accepted droplet values for each sample and a ratio value generated for each sample.
(§7) EC50 was determined by using a four parameter logistic equation: Y=A+((B−A)/(1+(C/X)D)); where Y is percent protection, X is compound concentration, A and B are minimum and maximum asymptotes, respectively, C is EC50, and D is Hill slope.

FgenL model RNA [4] = settings: percent protection, pH 11.0, 44° C., 16 hours, n = 2
Protocol: as §4, §5, §6, §7

[5] = intact Chi18 RNA after 15 min at 50° C.

Structure (SMILES) | % Control N = 1 (Chi18 model RNA [1]) [%] | % Control N = 2 (Chi18 model RNA [1]) [%] | % Control Avg. (Chi18 model RNA [1]) [%] | Conc. chi18#1 (Chi18 model RNA [1]; [5]) | % Control N = 1 (FgenL model RNA [2]) [%] | % Control N = 2 (FgenL model RNA [2]) [%] | % Control Average (FgenL model RNA [2]) [%] | Conc. FgenL#1 (FgenL model RNA [2]) | Conc. FgenL#2 (FgenL model RNA [2]) | EC50 (Chi18 model RNA [3]) [mM] | EC50 (FgenL model RNA [4]) [mM] | Conc. chi18#2 (Chi18 model RNA [1]; intact Chi18 RNA after 15 min at 50° C., 20 mM amino acids in 50 mM CAPS pH 11, run #2)
O[C@H](CS)[C@H](O)CS (racemic) [DTT, dithiothreitol] | 10.7 | 10.7 | 10.7 | 5.68 | 8.3 | 9.0 | 8.7 | 2.86 | 3.13 | – | – | –
N[C@@H](CSSC[C@H](N)C(=O)O)C(=O)O [Cystine] | 53.1 | 42.7 | 47.9 | 28.3 | 75.9 | 64.6 | 70.2 | 26.2 | 22.4 | > 29 | > 30 | 22.6
O=C(O)CCP(CCC(=O)O)CCC(=O)O [TCEP, tris(2-carboxyethyl)phosphine] | 2.6 | 2.6 | 2.6 | 1.41 | 5.0 | 4.0 | 4.5 | 1.71 | 1.38 | > 30 | > 30 | –
